Type in all cases: in vivo
Series [1] has as its system root-knot nematodes (Meloidogyne spp.). As to the kind of experiment: Petri dish nematocidal activity on hatched root-knot nematodes. The settings on record: for Number of killed root-knot nematodes: 15 nematodes; for Nematocidal efficiency (%): within 3 days; for Nematocidal efficiency on root-knot nematodes (%): geraniol concentration 685 ppm. The procedure: The nematodes used in the experiments were Meloidogyne spp. (hatched from eggs from infected roots of melons from farms in Seongju-gun, Gyeongsangbuk-do, Korea), and were propagated using tomato plants from Ecowin Co. Ltd. and used for experiments.
The tomato roots infected with root-knot nematodes were washed with running water and were then cut to a size of about 1 cm, after which 50 g of the cut roots was placed in a 500 ml round-bottom flask containing 200 ml of 0.5% sodium hypochloride (NaOCl), stopped with a rubber stopper, and shaken vigorously for 3 min to sterilize the roots and at the same time burst the egg bag. Thereafter, the solution was passed through a sieve in which 200 mesh was superimposed on 500 mesh, and washed with distilled water, so the eggs of the root-knot nematodes from which the NaOCl solution was removed were recovered.
Next, the eggs of the root-knot nematodes thus recovered were surface-sterilized with 0.5% NaOCl for 10 min, washed thoroughly with sterile distilled water, placed in a phosphate buffer (1%) containing sterilized normal saline, and hatched in an incubator at 25° C.
Thereafter, […], 2 to 3 ml thereof was poured into a Petri dish, after which 15 hatched root-knot nematodes were placed in the Petri dish, and nematocidal activity was measured and the results thereof are shown in Table 1 below.
Nematocidal activity on root-knot nematodes (treatment concentration: […]) was evaluated in the same manner as in Example 1, with the exception that Ostericum koreanum, clove, Myristica fragrans, Acorus gramineus, Kaempferia galanga and Amomum cardamomum L. extracts were used, in lieu of the naturally derived materials. Here, Ostericum koreanum, clove, Myristica fragrans, Acorus gramineus, Kaempferia galanga and Amomum cardamomum L. were purchased from a medicinal plant retailer located in the Daegu area and then extracted using ethanol according to a typical method. Specifically, each medicine was finely crushed, mixed with ethanol at a ratio of 1:5, and extracted at 180 rpm at room temperature for 48 hr, after which as much ethanol as possible was concentrated using a concentrator.
Nematocidal activity on root-knot nematodes was evaluated in the same manner as in Example 1, with the exception that a neem extract was used in lieu of the naturally derived materials.

In a further series the test system is tomato seedlings. As to the kind of experiment: Phytotoxicity on tomato seedlings in pots, drenching treatment, observed with the naked eye. The settings on record: 50 ml drench, 1 week after treatment. The procedure:
Sterilized soil was uniformly mixed, 300 g thereof was then placed in each pot, and tomato seedlings not infected with root-knot nematodes were transplanted thereto.
Sterilized soil was uniformly mixed, 300 g thereof was then placed in each pot, and tomato seedlings not infected with root-knot nematodes were transplanted thereto. The sample prepared in Example 4 was diluted to a standard amount or a multiple thereof for each treatment group, and then 50 ml thereof was used for drenching treatment.

The next series concerns root-lesion nematodes. Kind of series: Petri dish nematocidal activity on root-lesion nematodes. The settings on record: geraniol 2,000 ppm; for Number of killed nematodes: 15 root-lesion nematodes. An excerpt:
(§1) Petri dishes, followed by measurement of nematocidal activity.

For the next series, the system named is spiral nematodes. As to the kind of experiment: Petri dish nematocidal activity on spiral nematodes. The settings on record: geraniol 2,000 ppm; for Number of killed nematodes: 15 spiral nematodes.
Description: as §1

For another series, the system named is cyst nematodes. As to the kind of experiment: Petri dish nematocidal activity on cyst nematodes. The settings on record: geraniol 2,000 ppm; for Number of killed nematodes: 15 cyst nematodes.
Description: as §1

Marks after values point to notes of the source that are not given here.

The values that follow come from patent publication US11278024B2 (priority 2017, dated 2022).

For pyrethrin [reference compound], the “Number of killed root-knot nematodes” value worked out at 5 in series [1] (2,000 ppm, 1 day); 6 in series [1] (2,000 ppm, 2 days); 11 in series [1] (2,000 ppm, 3 days). Moreover, in series [1] (2,000 ppm), the “Nematocidal efficiency (%)” value is given as 73.3%.

Regarding `O=C1CCC[C@@H]2[C@H]3CCC[N+]4([O-])CCC[C@@H](CN12)[C@@H]34` (stereo partly shown) [Oxymatrine, oxymatrine, reference compound], the “Number of killed root-knot nematodes” value in series [1] (2,000 ppm, 1 day) turned out to be 7; in series [1] (2,000 ppm, 2 days), 9; in series [1] (2,000 ppm, 3 days) it was 10. The “Nematocidal efficiency (%)” value in series [1] (2,000 ppm) is 66.7%.

As for `CC(C)=CCC/C(C)=C/CO` [Geraniol, geraniol], the “Number of killed root-knot nematodes” value is reported as 5 in series [1] (100 ppm, 1 day); 7 in series [1] (100 ppm, 2 days); 7 in series [1] (100 ppm, 3 days); 5 in series [1] (200 ppm, 1 day); 7 in series [1] (200 ppm, 2 days); 13 in series [1] (200 ppm, 3 days). Moreover, the “Number of killed root-knot nematodes” value in series [1] (333 ppm, 1 day) is 5; in series [1] (333 ppm, 2 days), 6; in series [1] (333 ppm, 3 days) it was 15; in series [1] (500 ppm, 1 day), 5; in series [1] (500 ppm, 2 days) it was 10; in series [1] (500 ppm, 3 days), 15. In addition, the “Number of killed root-knot nematodes” value in series [1] (1,000 ppm, 1 day) is given as 10; in series [1] (1,000 ppm, 2 days), 15; in series [1] (3,000 ppm, 1 day) it was 15; in series [1] (10,000 ppm, 1 day) it was 15^a. Also, the “Nematocidal efficiency (%)” value stood at 46.7% in series [1] (100 ppm); 86.7% in series [1] (200 ppm); 100% in series [1] (333 ppm); 100% in series [1] (500 ppm); 100% in series [1] (1,000 ppm); 100% in series [1] (2,000 ppm). For the same molecule, the “Nematocidal efficiency (%)” value in series [1] (3,000 ppm) and in series [1] (10,000 ppm) was 100% each time. For the same molecule, the figures for the “Nematocidal efficiency on root-knot nematodes (%)” value in series [1] (1 day), in series [1] (2 days) and in series [1] (3 days) were 72.5%, 93.6% and 100.0%, respectively. In addition, the “Nematocidal effect of geraniol alone relative to palmarosa oil containing the same amount of geraniol” value in series [1] (same geraniol content (685 ppm)) is “about 4.2 times”. Also, the “Extent of phytotoxicity (0-5)” value with tomato seedlings (100 ppm), with tomato seedlings (200 ppm), with tomato seedlings (330 ppm), in the series with tomato seedlings (500 ppm), in the series with tomato seedlings (1,000 ppm) and in the series with tomato seedlings (2,000 ppm) was 0 each time. Besides, the “Extent of phytotoxicity (0-5)” value is reported as 0 in the series with tomato seedlings (3,000 ppm); 5 in the series with tomato seedlings (4,000 ppm); 5 with tomato seedlings (5,000 ppm); 5 in the series with tomato seedlings (10,000 ppm); 5 in the series on tomato seedlings (20,000 ppm). The Phytotoxicity symptom entry in the series with tomato seedlings (100 ppm), in the series with tomato seedlings (200 ppm), in the series with tomato seedlings (330 ppm), in the series with tomato seedlings (500 ppm), in the series on tomato seedlings (1,000 ppm) and with tomato seedlings (2,000 ppm) was “No” in each case. Further, the Phytotoxicity symptom entry is “No” in the series on tomato seedlings (3,000 ppm); “Withered” in the series on tomato seedlings (4,000 ppm); “Withered” in the series on tomato seedlings (5,000 ppm); “Withered” in the series on tomato seedlings (10,000 ppm); “Withered” in the series with tomato seedlings (20,000 ppm). The “Number of killed nematodes” value is 14^a with root-lesion nematodes (1 day); 15 in the series on root-lesion nematodes (2 days); 7 in the series on spiral nematodes (1 day); 9 with spiral nematodes (2 days); 13 with spiral nematodes (3 days); 8 with cyst nematodes (1 day). The results for the “Number of killed nematodes” value in the series with cyst nematodes (2 days) and in the series on cyst nematodes (3 days) were 11 and 12, respectively. In addition, the values for the Nematocidal efficiency with root-lesion nematodes (within 3 days), in the series with spiral nematodes (within 3 days) and with cyst nematodes (within 3 days) were 100%, 86.7% and 80%, respectively.

On to `C/C=C(\C)C(=O)O[C@H]1C[C@@H](OC(C)=O)[C@@]2(C(=O)OC)CO[C@H]3[C@@H](O)[C@@](C)([C@]45O[C@@]4(C)[C@H]4C[C@@H]5O[C@@H]5OC=C[C@@]54O)[C@H]4[C@]1(CO[C@]4(O)C(=O)OC)[C@@H]32` [Azadirachtin, azadirachtin, reference compound], for which the “Number of killed root-knot nematodes” value amounted to 7 in series [1] (2,000 ppm, 1 day); 8 in series [1] (2,000 ppm, 2 days); 10 in series [1] (2,000 ppm, 3 days). Moreover, the “Nematocidal efficiency (%)” value in series [1] (2,000 ppm) turned out to be 66.7%.
